Legend:
[1] = Drug release studies, polymer-drug-clay disks (Example 3); format: physicochemical
From the text: In a one embodiment the discs were 18 mm in diameter and 1 mm thick. Different sizes or shapes of discs will influence the release rate of the drug.

[2] = Drug release studies, polymer-drug-clay extrudate (Example 3); format: physicochemical
From the text: PEGIB is PEG+ibuprofen, PEGIBM is PEG+ibuprofen+montmorillonite (natural clay) and PEGIBS is PEG+ibuprofen+synthetic clay. In one embodiment the extrudate is rod shaped with a diameter of 1 mm.
In one embodiment the extrudate is rod shaped with a diameter of 1 mm.

Compound | Time 50% release ([1]; PEG-Ibuprofen-Clay Disks) | Time 80% release ([1]; PEG-Ibuprofen-Clay Disks) | Time 100% release ([1]; PEG-Ibuprofen-Clay Disks) | Time 50% release ([2]; PEG-Ibuprofen-Clay Extrudate) | Time 80% release ([2]; PEG-Ibuprofen-Clay Extrudate) | Time 100% release ([2]; PEG-Ibuprofen-Clay Extrudate) | Time 50% release ([1]; PCL-Paracetamol-Clay Disks) | Time 80% release ([1]; PCL-Paracetamol-Clay Disks) | Time 100% release ([1]; PCL-Paracetamol-Clay Disks) | Time 50% release ([1]; PEG-Paracetamol-Clay Disks) | Time 80% release ([1]; PEG-Paracetamol-Clay Disks) | Time 100% release ([1]; PEG-Paracetamol-Clay Disks) | Time 50% release ([2]; PCL-Paracetamol-Clay Extrudate) | Time 80% release ([2]; PCL-Paracetamol-Clay Extrudate) | Time 100% release ([2]; PCL-Paracetamol-Clay Extrudate) | Time 50% release ([2]; PEG-Paracetamol-Clay Extrudate) | Time 80% release ([2]; PEG-Paracetamol-Clay Extrudate) | Time 100% release ([2]; PEG-Paracetamol-Clay Extrudate)
CC(C)Cc1ccc(C(C)C(=O)O)cc1 (stereo not drawn) [Ibuprofen Powder, ibuprofen] | <5 min | <5 min | 10 min | <5 min | <5 min | 10 min | – | – | – | – | – | – | – | – | – | – | – | –
CC(=O)Nc1ccc(O)cc1 [Paracetamol powder, paracetamol] | – | – | – | – | – | – | <5 min | <5 min | <5 min | <5 min | <5 min | <5 min | <5 min | <5 min | <5 min | <5 min | <5 min | <5 min
